Experimental data as given in ChEMBL document CHEMBL3885881, “DrugMatrix”.

Species: Rattus norvegicus
Assay: DrugMatrix - Regimen: Daily Repeat
Format: toxicity, organism-based, Sprague-Dawley
Design: regimen Daily Repeat, gender Male, age 6-8 weeks
Conditions: in vivo, iv, vehicle 100 % SALINE; for ABSOLUTE BASOPHIL / ABSOLUTE EOSINOPHIL / ABSOLUTE LYMPHOCYTE / ABSOLUTE MONOCYTE / ABSOLUTE SEGMENTED NEUTROPHIL / BASOPHIL / EOSINOPHIL / ERYTHROCYTE COUNT / HEMATOCRIT / HEMOGLOBIN / LEUKOCYTE COUNT / LYMPHOCYTE / MEAN CORPUSCULAR HEMOGLOBIN / MEAN CORPUSCULAR HEMOGLOBIN CONCENTRATION / MEAN CORPUSCULAR VOLUME / MONOCYTE / NEUTROPHIL / NUCLEATED RED BLOOD CELLS / PLATELET COUNT: tissue Blood; for ALANINE AMINOTRANSFERASE / ALBUMIN / ALKALINE PHOSPHATASE / ASPARTATE AMINOTRANSFERASE / BLOOD UREA NITROGEN / CARBON DIOXIDE / CHLORIDE / CHOLESTEROL / CREATINE PHOSPHOKINASE / CREATININE / GLUCOSE / LACTATE DEHYDROGENASE / LIPASE / PHOSPHORUS / POTASSIUM / SODIUM / TOTAL BILIRUBIN / TOTAL PROTEIN / URIC ACID: tissue Plasma
[1] = 29 mg/kg, 120 h, dose level Low, time 5 day
[2] = 48 mg/kg, 72 h, dose level High, time 3 day
[3] = 48 mg/kg, 120 h, dose level High, time 5 day

C[n+]1ccccc1/C=N/O.[Cl-] [PRALIDOXIME CHLORIDE]
ABSOLUTE BASOPHIL [1]: 0 CELLS/uL
ABSOLUTE EOSINOPHIL [1]: 0 CELLS/uL
ABSOLUTE LYMPHOCYTE [1]: 11211.67 CELLS/uL
ABSOLUTE MONOCYTE [1]: 254 CELLS/uL
ABSOLUTE SEGMENTED NEUTROPHIL [1]: 1034.33 CELLS/uL
BASOPHIL [1]: 0%
EOSINOPHIL [1]: 0%
ERYTHROCYTE COUNT [1]: 5.41 x10E6/uL
HEMATOCRIT [1]: 34.03%
HEMOGLOBIN [1]: 12.57 G/DL
LEUKOCYTE COUNT [1]: 12.5 x10E3/uL
LYMPHOCYTE [1]: 89.67%
MEAN CORPUSCULAR HEMOGLOBIN [1]: 23.3 pg
MEAN CORPUSCULAR HEMOGLOBIN CONCENTRATION [1]: 36.97 G/DL
MEAN CORPUSCULAR VOLUME [1]: 63 fL
MONOCYTE [1]: 2%
NEUTROPHIL [1]: 8.33%
NUCLEATED RED BLOOD CELLS [1]: 0 /100WBC
PLATELET COUNT [1]: 1164.33 x10E3/uL
ALANINE AMINOTRANSFERASE [1]: 69.67 u/L
ALBUMIN [1]: 3.7 G/DL
ALKALINE PHOSPHATASE [1]: 366.67 u/L
ASPARTATE AMINOTRANSFERASE [1]: 95.33 u/L
BLOOD UREA NITROGEN [1]: 17.67 mg/dL
CARBON DIOXIDE [1]: 22.67 mmol/L
CHLORIDE [1]: 105 MEQ/L
CHOLESTEROL [1]: 58.67 mg/dL
CREATINE PHOSPHOKINASE [1]: 283.67 u/L
CREATININE [1]: 0.2 mg/dL
GLUCOSE [1]: 168.67 mg/dL
LACTATE DEHYDROGENASE [1]: 87.33 u/L
LIPASE [1]: 9 u/L
PHOSPHORUS [1]: 12.73 mg/dL
POTASSIUM [1]: 7.24 MEQ/L
SODIUM [1]: 145.2 MEQ/L
TOTAL BILIRUBIN [1]: 0.1 mg/dL
TOTAL PROTEIN [1]: 5.83 G/DL
URIC ACID [1]: 1.97 mg/dL
ABSOLUTE BASOPHIL [2]: 0 CELLS/uL
ABSOLUTE EOSINOPHIL [2]: 0 CELLS/uL
ABSOLUTE LYMPHOCYTE [2]: 13021.33 CELLS/uL
ABSOLUTE MONOCYTE [2]: 38.67 CELLS/uL
ABSOLUTE SEGMENTED NEUTROPHIL [2]: 1206.67 CELLS/uL
BASOPHIL [2]: 0%
EOSINOPHIL [2]: 0%
ERYTHROCYTE COUNT [2]: 5.54 x10E6/uL
HEMATOCRIT [2]: 36.53%
HEMOGLOBIN [2]: 13.53 G/DL
LEUKOCYTE COUNT [2]: 14.27 x10E3/uL
LYMPHOCYTE [2]: 91.33%
MEAN CORPUSCULAR HEMOGLOBIN [2]: 24.57 pg
MEAN CORPUSCULAR HEMOGLOBIN CONCENTRATION [2]: 37.03 G/DL
MEAN CORPUSCULAR VOLUME [2]: 66.2 fL
MONOCYTE [2]: 0.33%
NEUTROPHIL [2]: 8.33%
NUCLEATED RED BLOOD CELLS [2]: 0 /100WBC
PLATELET COUNT [2]: 1281.33 x10E3/uL
ALANINE AMINOTRANSFERASE [2]: 51.67 u/L
ALBUMIN [2]: 4.43 G/DL
ALKALINE PHOSPHATASE [2]: 377.33 u/L
ASPARTATE AMINOTRANSFERASE [2]: 70.67 u/L
BLOOD UREA NITROGEN [2]: 14.67 mg/dL
CARBON DIOXIDE [2]: 19.33 mmol/L
CHLORIDE [2]: 101.33 MEQ/L
CHOLESTEROL [2]: 73.67 mg/dL
CREATINE PHOSPHOKINASE [2]: 198.33 u/L
CREATININE [2]: 0.19 mg/dL
GLUCOSE [2]: 169.33 mg/dL
LACTATE DEHYDROGENASE [2]: 89.67 u/L
LIPASE [2]: 10 u/L
PHOSPHORUS [2]: 11.87 mg/dL
POTASSIUM [2]: 6 MEQ/L
SODIUM [2]: 146.3 MEQ/L
TOTAL BILIRUBIN [2]: 0.2 mg/dL
TOTAL PROTEIN [2]: 6.03 G/DL
URIC ACID [2]: 1.37 mg/dL
ABSOLUTE BASOPHIL [3]: 0 CELLS/uL
ABSOLUTE EOSINOPHIL [3]: 56 CELLS/uL
ABSOLUTE LYMPHOCYTE [3]: 13632 CELLS/uL
ABSOLUTE MONOCYTE [3]: 1059.33 CELLS/uL
ABSOLUTE SEGMENTED NEUTROPHIL [3]: 1786 CELLS/uL
BASOPHIL [3]: 0%
EOSINOPHIL [3]: 0.33%
ERYTHROCYTE COUNT [3]: 5.32 x10E6/uL
HEMATOCRIT [3]: 32.57%
HEMOGLOBIN [3]: 12.23 G/DL
LEUKOCYTE COUNT [3]: 16.53 x10E3/uL
LYMPHOCYTE [3]: 82.33%
MEAN CORPUSCULAR HEMOGLOBIN [3]: 23 pg
MEAN CORPUSCULAR HEMOGLOBIN CONCENTRATION [3]: 37.57 G/DL
MEAN CORPUSCULAR VOLUME [3]: 61.17 fL
MONOCYTE [3]: 6.33%
NEUTROPHIL [3]: 11%
NUCLEATED RED BLOOD CELLS [3]: 0 /100WBC
PLATELET COUNT [3]: 992.67 x10E3/uL
ALANINE AMINOTRANSFERASE [3]: 69 u/L
ALBUMIN [3]: 3.57 G/DL
ALKALINE PHOSPHATASE [3]: 386.67 u/L
ASPARTATE AMINOTRANSFERASE [3]: 113.33 u/L
BLOOD UREA NITROGEN [3]: 16 mg/dL
CARBON DIOXIDE [3]: 27 mmol/L
CHLORIDE [3]: 104.33 MEQ/L
CHOLESTEROL [3]: 62 mg/dL
CREATINE PHOSPHOKINASE [3]: 792 u/L
CREATININE [3]: 0.2 mg/dL
GLUCOSE [3]: 194 mg/dL
LACTATE DEHYDROGENASE [3]: 193.33 u/L
LIPASE [3]: 11.33 u/L
PHOSPHORUS [3]: 11.63 mg/dL
POTASSIUM [3]: 6.09 MEQ/L
SODIUM [3]: 144.97 MEQ/L
TOTAL BILIRUBIN [3]: 0.13 mg/dL
TOTAL PROTEIN [3]: 6.03 G/DL
URIC ACID [3]: 1.73 mg/dL
